Read-outs that look alike come from different tables or passages of the source.
Tested on: HIV-1
Experiment: HIV-1 single-round infectious luciferase reporter virus (pseudotype) assay in HeLa CD4 CCR5 cells
Type: cell-based
Description: • Virus production—Human embryonic Kidney cell line, 293, propagated in Dulbecco's Modified Eagle Medium (Life Technologies, Gaithersburg, Md.) containing 10% fetal Bovine serum (FBS, Sigma, St. Louis, Mo.). • Virus infection—Human epithelial cell line, HeLa, expressing the HIV-1 receptors CD4 and CCR^5 was propagated in Dulbecco's Modified Eagle Medium (Life Technologies, Gaithersburg, Md.) containing 10% fetal Bovine serum (FBS, Sigma, St. Louis, Mo.) and supplemented with 0.2 mg/mL Geneticin (Life Technologies, Gaithersburg, Md.) and 0.4 mg/mL Zeocin (Invitrogen, Carlsbad, Calif.). […] Transfections were performed using lipofectAMINE PLUS reagent as described by the manufacturer (Life Technologies, Gaithersburg, Md.). Experiment • 1. Compound was added to HeLa CD4 CCR5 cells plated in 96 well plates at a cell density of 5×10^4 cells per well in 100 μl Dulbecco's Modified Eagle Medium containing 10% fetal Bovine serum at a concentration of […]. • 2. 100 μl of single-round infectious reporter virus in Dulbecco's Modified Eagle Medium was then added to the plated cells and compound at an approximate multiplicity of infection (MOI) of 0.01, resulting in a final volume of 200 μl per well and a final compound concentration of <10 μM. • 3. Samples were harvested 72 h after infection. • 4. Viral infection was monitored by measuring luciferase expression from viral DNA in the infected cells using a luciferase reporter gene assay kit (Roche Molecular Biochemicals, Indianapolis, Ind.). Infected cell supernatants were removed and 50 μl of Dulbecco's Modified Eagle Medium (without phenol red) and 50 μl of luciferase assay reagent reconstituted as described by the manufacturer (Roche Molecular Biochemicals, Indianapolis, Ind.) was added per well. Luciferase activity was then quantified by measuring luminescence using a Wallac microbeta scintillation counter. • 5. […] An EC50 provides a method for comparing the antiviral potency of the compounds of this invention. The effective concentration for fifty percent inhibition (EC50) was calculated with the Microsoft Excel Xlfit curve fitting software. For each compound, curves were generated from percent inhibition calculated at 10 different concentrations by using a four paramenter logistic model (model 205). Table 1 is the key for the data in Tables 2-4. Cytoxicity assays were conducted with the same HeLa using methodology well known in the art.
In Table 5, X2, X4 etc. indicates the point of attachment. […] The data at 10 μM was calculated in the following manner:
For compounds tested at concentrations less than 10 μM, the percent inhibition at 10 μM was determined by extrapolation using the XLfit curve fitting feature of the Microsoft Excel spreadsheet software. Curves were obtained from 10 data points (% inhibition determined at 10 concentrations of compound) by using a four parameter logistic model (XLfit model 205: y=A+((B−A)/(I+((C/x)^D))), where, A=minimum y, B=maximum y, C=logEC50, D=slope factor, and x and y are known data values. Extrapolations were performed with the A and B parameters unlocked. […]

[1] = Human immunodeficiency virus 1, HeLa-CD4/CCR5, read-out: EC50 Group from Table 1, Table 2-1, HeLa CD4 CCR5 cells, single-round luciferase reporter virus
[2] = Human immunodeficiency virus 1, HeLa-CD4/CCR5, read-out: EC50 Group from TABLE 1, HeLa CD4 CCR5 cells, single-round infectious luciferase reporter virus
[3] = Human immunodeficiency virus 1, HeLa-CD4/CCR5, read-out: EC50 Group from Table 1, Table 4, HeLa CD4 CCR5 cells, single-round luciferase reporter virus

SMILES	EC50 [2]	also measured
COc1cnc(-n2ccc(C(C)O)n2)c2[nH]cc(C(=O)C(=O)N3CCN(C(=O)c4ccccc4)[C@H](C)C3)c12 (stereo partly drawn) [Example 235, (R)-1-benzoyl-2-methyl-4-[(4-methoxy-7-(3-(1-hydroxylethyl)-pyrazol-1-yl)-6-azaindol-3-yl)-oxoacetyl]piperazine]		EC50 [1]: < 1000 nM
COc1cnc(-n2ccc(C(C)=O)n2)c2[nH]cc(C(=O)C(=O)N3CCN(C(=O)c4ccccc4)[C@H](C)C3)c12 [Example 259, (R)-1-benzoyl-2-methyl-4-[(4-methoxy-7-(3-methylcarbonyl-pyrazol-1-yl)-6-azaindol-3-yl)-oxoacetyl]piperazine]		EC50 [1]: < 1000 nM
COc1cnc(-c2cnccn2)c2[nH]cc(C(=O)C(=O)N3CCN(C(=O)c4csnn4)CC3)c12 [Example 197]	< 1000 nM	
Nc1cnc(-c2ncc(Cl)c3c(C(=O)C(=O)N4CCN(C(=O)c5ccccc5)CC4)c[nH]c23)cn1 [Example 143]	< 1000 nM	
O=C(C(=O)N1CCN(C(=O)c2ccccc2)CC1)c1c[nH]c2c(-c3cccc4cccnc34)nccc12 [Example 11, 1-benzoyl-4-[(7-(quinolin-8-yl)-6-azaindol-3-yl)-oxoacetyl]piperazine]	< 1000 nM	
COc1cnc(-n2cc(CO)cn2)c2[nH]cc(C(=O)C(=O)N3CCN(C(=O)c4ccccc4)C[C@H]3C)c12 [Example 237, (R)-1-benzoyl-3-methyl-4-[(4-methoxy-7-(4-hydroxylmethyl-pyrazol-1-yl)-6-azaindol-3-yl)-oxoacetyl]piperazine]		EC50 [1]: < 1000 nM
COc1cnc(-n2nccc2N)c2[nH]cc(C(=O)C(=O)N3CCN(C(=O)c4ccccc4)CC3)c12 [Example 252, 1-benzoyl-4-[(4-methoxy-7-(5-amino-pyrazol-1-yl)-6-azaindol-3-yl)-oxoacetyl]piperazine]	< 1000 nM	
COc1cnc(-c2ccncc2)c2[nH]cc(C(=O)C(=O)N3CCN(C(=O)c4ccccc4)CC3)c12 [Example 14, 1-benzoyl-4-[(4-methoxy-7-(pyridin-4-yl)-6-azaindol-3-yl)-oxoacetyl]piperazine]	< 1000 nM	
COc1cnc(-n2ccc(C(F)(F)F)n2)c2[nH]cc(C(=O)C(=O)N3CCN(C(=O)c4ccccc4)CC3)c12 [Example 192, 1-benzoyl-4-[(4-methoxy-7-(3-trifluoromethylpyrazol-1-yl)-6-azaindol-3-yl)-oxoacetyl]piperazine]	< 1000 nM	
COc1cnc(-n2ccc(CCC(=O)O)n2)c2[nH]cc(C(=O)C(=O)N3CCN(C(=O)c4ccccc4)[C@H](C)C3)c12 [Example 234, (R)-1-benzoyl-2-methyl-4-[(4-methoxy-7-(3-(2-hydroxylcarbonylethan-1-yl)-pyrazol-1-yl)-6-azaindol-3-yl)-oxoacetyl]piperazine]		EC50 [1]: < 1000 nM
COc1cnc(-c2cnc(N(C)C)cn2)c2[nH]cc(C(=O)C(=O)N3CCN(C(=O)c4ccccn4)CC3)c12 [Example 103, 1-picolinoyl-4-[(4-methoxy-7-(2-dimethylamino-pyrazin-5-yl)-6-azaindol-3-yl)-oxoacetyl]piperazine]	< 1000 nM	
COc1cnc(-c2cnc(N3CCNCC3)cn2)c2[nH]cc(C(=O)C(=O)N3CCN(C(=O)c4ccccc4)CC3)c12 [Example 177, 1-benzoyl-4-[(4-methoxy-7-(2-(N-piperazinyl)-pyrazin-5-yl)-6-azaindol-3-yl)-oxoacetyl]piperazine]	< 1000 nM	
COc1cnc(-c2cnc3ccccc3n2)c2[nH]cc(C(=O)C(=O)N3CCN(C(=O)c4ccccn4)CC3)c12 [Example 186, 1-picolinoyl-4-[(4-methoxy-7-(quinoxakin-2-yl)-6-azaindol-3-yl)-oxoacetyl]piperazine]	< 1000 nM	
COc1cnc(-n2ncnc2C)c2[nH]cc(C(=O)C(=O)N3CCN(C(=O)c4ccccc4)CC3)c12 [Example 319]	< 1000 nM	
COc1cnc(-c2cccnc2)c2[nH]cc(C(=O)C(=O)N3CCN(C(=O)c4ccccc4)CC3)c12 [Example 25, 1-benzoyl-4-[(4-methoxy-7-(pyridin-3-yl)-6-azaindol-3-yl)-oxoacetyl]piperazine]	< 1000 nM	
Cc1c[nH]c(-c2cc(Cl)nc3c(C(=O)C(=O)N4CCN(C(=O)c5ccccc5)C[C@H]4C)c[nH]c23)n1 [Example 61, l-benzoyl-3-(R)-methyl-4-[(5-chloro-7-(4-methyl-imidazol-2-yl)-4-azaindol-3-yl)-oxoacetyl]piperazine]		EC50 [3]: < 1000 nM

SMILES	EC50 [2]	also measured
COc1cnc(-n2nccc2C)c2[nH]cc(C(=O)C(=O)N3CCN(C(=O)c4ccccc4)CC3)c12 [Example 240, 1-benzoyl-4-[(4-methoxy-7-(5-methyl-pyrazol-1-yl)-6-azaindol-3-yl)-oxoacetyl]piperazine]	< 1000 nM	
COc1cnc(-c2nc(-c3ccccc3)n[nH]2)c2[nH]cc(C(=O)C(=O)N3CCN(C(=O)c4ccccc4)[C@H](C)C3)c12 [Example 335]		EC50 [1]: < 1000 nM
COc1cnc(-c2cnc(N3CCOCC3)cn2)c2[nH]cc(C(=O)C(=O)N3CCN(C(=O)c4ccccc4)CC3)c12 [Example 178, 1-benzoyl-4-[(4-methoxy-7-(2-(4-morpholinyl)-pyrazin-5-yl)-6-azaindol-3-yl)-oxoacetyl]piperazine]	< 1000 nM	
COc1cnc(-c2ccoc2)c2[nH]cc(C(=O)C(=O)N3CCN(C(=O)c4ccccc4)CC3)c12 [Example 81, 1-benzoyl-4-[(4-methoxy-7-(furan-3-yl)-6-azaindol-3-yl)-oxoacetyl]piperazine]	< 1000 nM	
COc1cnc(-c2cnccn2)c2[nH]cc(C(=O)C(=O)N3CCN(C(=O)OC(C)(C)C)CC3)c12 [Precursor 5t]	< 1000 nM	
COc1cnc(-c2cnc(SC)s2)c2[nH]cc(C(=O)C(=O)N3CCN(C(=O)c4ccccc4)CC3)c12 [Example 93, 1-benzoyl-4-[(4-methoxy-7-(2-methylthio-thiazol-5-yl)-6-azaindol-3-yl)-oxoacetyl]piperazine]	< 1000 nM	
COc1cnc(-n2ccc(-c3ccccc3)n2)c2[nH]cc(C(=O)C(=O)N3CCN(C(=O)c4ccccc4)[C@H](C)C3)c12 [Example 260, (R)-1-benzoyl-2-methyl-4-[(4-methoxy-7-(3-phenyl-pyrazol-1-yl)-6-azaindol-3-yl)-oxoacetyl]piperazine]		EC50 [1]: < 1000 nM
C[C@H]1CN(C(=O)c2ccccn2)CCN1C(=O)C(=O)c1c[nH]c2c(-c3cncs3)nccc12 [Example 110, (S)-1-picolinoyl-3-methyl-4-[(7-(thiazol-5-yl)-6-azaindol-3-yl)-oxoacetyl]piperazine]	< 1000 nM	
COc1cnc(-n2ccc(CC(C)O)n2)c2[nH]cc(C(=O)C(=O)N3CCN(C(=O)c4ccccc4)CC3)c12 (stereo not shown) [Example 277, 1-benzoyl-4-[(4-methoxy-7-(3-(2-hydroxylpropyl)-pyrazol-1-yl)-6-azaindol-3-yl)-oxoacetyl]piperazine]	< 1000 nM	
C[C@@H]1CN(C(=O)c2ccccc2)CCN1C(=O)C(=O)c1c[nH]c2c(-c3ccc(C(=O)O)cc3)nccc12 [Example 164]	< 1000 nM	
COc1cnc(-n2ccc(C(C)n3cncn3)n2)c2[nH]cc(C(=O)C(=O)N3CCN(C(=O)c4ccccc4)[C@H](C)C3)c12 (stereo partly shown) [Example 265]		EC50 [1]: < 1000 nM
C[C@@H]1CN(C(=O)c2ccccc2)CCN1C(=O)C(=O)c1c[nH]c2c(-c3cnccn3)ccnc12 [Example 52, 1-benzoyl-3-(R)-methyl-4-[(7-(pyrazin-2-yl)-4-azaindol-3-yl)-oxoacetyl]piperazine]		EC50 [3]: < 1000 nM
COc1cnc(-c2ccc(C=O)o2)c2[nH]cc(C(=O)C(=O)N3CCN(C(=O)c4ccccc4)CC3)c12 [Example 85, 1-(benzoyl)-4-[(4-methoxy-7-(5-carbonyl-furan-2-yl)-6-azaindol-3-yl)-oxoacetyl]piperazine]	< 1000 nM	
O=Cc1ccc(-c2ccnc3c(C(=O)C(=O)N4CCN(C(=O)c5ccccc5)CC4)c[nH]c23)s1 [Example 133]		EC50 [3]: < 1000 nM
C[C@@H]1CN(C(=O)c2ccccn2)CCN1C(=O)C(=O)c1c[nH]c2c(-c3cncs3)nccc12 [Example 109, (R)-1-picolinoyl-3-methyl-4-[(7-(thiazol-5-yl)-6-azaindol-3-yl)-oxoacetyl]piperazine]	< 1000 nM	

— patent US20050090522A1 (priority 2001, published 2005)
